{"source": "patent US20260139003A1", "about": "“PEPTIDE WITH ACTIVITY OF PROMOTING HAIR GROWTH AND INHIBITING HAIR LOSS AND USE THEREOF” (CAREGEN CO., LTD., priority 2022, published 2026)", "key": {"[1]": {"tested_on": "human hair follicle dermal papilla cells (HHFDPCs)", "assay": "Proliferation of HHFDPCs (MTT)", "assay_type": "cell-based", "details": "500 nM, 5 μM, and 50 μM, 72 hours, absorbance 540 nm, FIG. 1", "protocol": "The effect of the peptide prepared in Preparation Example 1 above on the proliferation of human hair follicle dermal papilla cells (HHFDPCs) was tested.\nHHFDPCs were seeded in a 96-well cell culture plate at a density of 4×10^3 cells/well and cultured for 24 hours under mesenchymal stem cell complete media conditions. Then, the medium was replaced with serum-free mesenchymal stem cell medium and cultured for additional 24 hours. The cultured cell culture was treated with the peptide prepared in Preparation Example 1 above at 500 nM, 5 μM, and 50 μM, respectively, treated with 1 μM VEGF to serve as a positive control, and not treated with anything to serve as a negative control (con), and these cultures were cultured at 37° C. for additional 72 hours. Thereafter, 10 μL of MTT solution (5 mg/mL) was added thereto, and the mixture was incubated in a CO2 incubator at 37° C. for 4 hours, the medium was removed, and 100 μL of DMSO was added thereto and shaken for 10 minutes. Finally, the absorbance was measured at a wavelength of 540 nm using a spectrophotometer (Molecular Devices (SpectraMax iD3, CA, USA))."}, "Akt": {"tested_on": "Akt", "assay": "Akt phosphorylation in HHFDPCs (Western blot)", "assay_type": "cell-based, human", "details": "500 nM, 5 μM, and 50 μM, 24 hours, FIG. 2", "protocol": "(§1) The effect of the peptide prepared in Preparation Example 1 above on the activation of proliferation-related signaling molecules in human hair follicle dermal papilla cells (HHFDPCs) was confirmed by Western blot method.\n(§2) HHFDPCs were seeded in a 6-well cell culture plate at a density of 4×10^5 cells/well and cultured for 24 hours under mesenchymal stem cell complete media conditions. Then, the medium was replaced with serum-free mesenchymal stem cell medium and cultured for additional 24 hours. The cultured cell culture was treated with the peptide prepared in Preparation Example 1 above at 500 nM, 5 μM, and 50 μM, respectively, 1 μM of Minoxidil (MNX) was treated to serve as a positive control, and not treated with anything to serve as a negative control (con), and the cultures treated with these materials were cultured at 37° C. for additional 24 hours. After washing each culture with PBS, the cells were lysed by treatment with lysis buffer to obtain a cell lysate. Equal amounts of protein samples were prepared by BCA quantification of cell lysates. The prepared protein samples were subjected to electrophoresis using 10% SDS-PAGE. […] The resultant was washed 3 times for 15 minutes each with 0.1% PBS-T (0.1% Tween-20 in PBS), treated with ECL solution (GE Healthcare, USA), and detected with a film."}, "[2]": {"tested_on": "extracellular-regulated kinase (ERK)", "assay": "ERK phosphorylation in HHFDPCs (Western blot)", "assay_type": "cell-based, human", "details": "500 nM, 5 μM, and 50 μM, 24 hours, FIG. 2", "protocol": "as §1, §2"}, "beta-catenin": {"tested_on": "beta-catenin", "assay": "Activation of beta-catenin in HHFDPCs (nuclear protein Western blot)", "assay_type": "cell-based, human", "details": "500 nM, 5 μM, and 50 μM, 24 hours, nuclear proteins, FIG. 3", "protocol": "The effect of the peptide prepared in Preparation Example 1 above on the activation of beta-catenin in human hair follicle dermal papilla cells (HHFDPCs) was confirmed by Western blot method.\nHHFDPCs were seeded in a 6-well cell culture plate at a density of 4×10^5 cells/well and cultured for 24 hours under mesenchymal stem cell complete media conditions. Then, the medium was replaced with serum-free mesenchymal stem cell medium and cultured for additional 24 hours. The cultured cell culture was treated with the peptide prepared in Preparation Example 1 above at 500 nM, 5 μM, and 50 μM, respectively, and treated with 10 ng/mL of rhWnt-3a (recombinant human Wnt-3a protein, R&D systems (MN, USA) to serve as a positive control, and not treated with anything to serve as a negative control (con). The cultures treated with these materials were incubated at 37° C. for additional 24 hours. After washing each culture with PBS, nuclear proteins were isolated using a nuclear protein extraction kit (Thermo scientific, USA), and an equal amount of protein sample was prepared by BCA quantification. The prepared protein samples were subjected to electrophoresis using 10% SDS-PAGE. […] The resultant was washed 3 times for 15 minutes each with 0.1% PBS-T (0.1% Tween-20 in PBS), treated with ECL solution (GE Healthcare, USA), and detected with a film."}, "LEF-1": {"tested_on": "LEF-1", "assay": "LEF-1 gene expression in HHFDPCs (RT-PCR)", "assay_type": "cell-based, human", "details": "500 nM, 5 μM, and 50 μM, 24 hours, FIG. 4", "protocol": "(§3) The effect of the peptide prepared in Preparation Example 1 above on the expression levels of lymphoid enhancer-binding factor 1 (LEF-1), c-Myc, and Cyclin D1, which are downstream genes of beta-catenin, in human hair follicle dermal papilla cells (HHFDPCs) was determined by the RT-PCR method.\n(§4) HHFDPCs were seeded in a 6-well cell culture plate at a density of 4×10^5 cells/well and cultured for 24 hours under mesenchymal stem cell complete media conditions. Then, the medium was replaced with serum free mesenchymal stem cell medium and cultured for additional 24 hours. The cultured cell culture was treated with the peptide prepared in Preparation Example 1 above at 500 nM, 5 μM, and 50 μM, respectively, and treated with 10 ng/mL of rhWnt-3a (recombinant human Wnt-3a protein, R&D systems (MN, USA) to serve as a positive control, and not treated with anything to serve as a negative control (con), and each was cultured at 37° C. for additional 24 hours. After washing each culture with PBS, RNA was isolated therefrom by treatment with 300 μL of eaay blue (Intron, South Korea). The isolated RNA was quantified using Nano drop, and then subjected to cDNA synthesis using a cDNA synthesis kit (Enzynomics, South Korea). […] The PCR reaction product was electrophoresed on a 1.5% agarose gel, and the bands were detected using the Bio-Rad Gel Image System."}, "Cyclin D1": {"tested_on": "Cyclin D1", "assay": "Cyclin D1 gene expression in HHFDPCs (RT-PCR)", "assay_type": "cell-based, human", "details": "500 nM, 5 μM, and 50 μM, 24 hours, FIG. 4", "protocol": "as §3, §4"}, "c-Myc": {"tested_on": "c-Myc", "assay": "c-Myc gene expression in HHFDPCs (RT-PCR)", "assay_type": "cell-based, human", "details": "500 nM, 5 μM, and 50 μM, 24 hours, FIG. 4", "protocol": "as §3, §4"}, "DKK-1": {"tested_on": "DKK-1", "assay": "Expression of hair loss protein DKK-1 induced by DHT in HHFDPCs (Western blot)", "assay_type": "cell-based, human", "details": "500 nM, 5 μM, and 50 μM, DHT 100 nM simultaneously, 24 hours, FIG. 5", "source_text": "It is known that in hair follicles, dihydrotestosterone (DHT) promotes the expression of Dickkopf-1 (DKK-1), and DKK-1 induced by DHT inhibits the proliferation of keratinocytes in hair follicles and causes their apoptosis, thereby promoting hair loss (J of Invest Dermatolo. 2008, February, 128(2), pp. 262-269). The effect of the peptide prepared in Preparation Example 1 above on the expression level of the hair loss-inducing protein DKK-1 in human hair follicle dermal papilla cells (HHFDPCs) was confirmed by Western blot method.\nHHFDPCs were seeded in a 6-well cell culture plate at a density of 4×10^5 cells/well and cultured for 24 hours under mesenchymal stem cell complete media conditions. Then, the medium was replaced with serum-free mesenchymal stem cell medium and cultured for additional 24 hours. The cultured cell culture was treated with 500 nM, 5 μM, and 50 μM of the peptide prepared in Preparation Example 1 above, respectively. treated with 5 μM of finasteride to serve as a positive control, and not treated with anything to serve as a negative control group (con). […] Equal amounts of protein samples were prepared by BCA quantification of cell lysates. […] The resultant was washed 3 times for 15 minutes each with 0.1% PBS-T (0.1% Tween-20 in PBS), treated with ECL solution (GE Healthcare, USA), and detected with a film."}, "Ha3-II": {"tested_on": "Ha3-II", "assay": "Ha3-II gene expression in HHORSCs (RT-PCR)", "assay_type": "cell-based, human", "details": "500 nM, 5 μM, and 50 μM, 24 hours, FIG. 6", "protocol": "(§5) The effect of the peptide prepared in Preparation Example 1 above on the activation of human hair outer root sheath cells (HHORSCs) was confirmed by measuring the gene expression of cytokeratin proteins.\n(§6) HHORSCs were seeded in a 96-well cell culture plate at a density of 4×10^3 cells/well and cultured for 24 hours under mesenchymal stem cell complete media conditions. Then, the medium was replaced with serum free mesenchymal stem cell medium and cultured for additional 24 hours. The cultured cell culture was treated with 500 nM, 5 μM, and 50 μM of the peptide prepared in Preparation Example 1 above, respectively, and treated with 100 nM of epidermal growth factor (EGF) as a positive control, and negative when not treated with anything to serve as a negative control (con), and these cultures were cultured at 37° C. for 24 hours. After washing each culture with PBS, RNA was isolated by treatment with 300 μL of eaay blue (Intron, South Korea). The isolated RNA was quantified using Nano drop, and then subjected to cDNA synthesis using a cDNA synthesis kit (Enzynomics, South Korea). Then, a PCR reaction was performed using the primers shown in Table 3 below and a PCR premix (Enzynomics, South Korea). The PCR reaction product was electrophoresed on a 1.5% agarose gel, and the bands were detected using the Bio-Rad Gel Image System."}, "Keratin 5": {"tested_on": "Keratin 5", "assay": "Keratin 5 gene expression in HHORSCs (RT-PCR)", "assay_type": "cell-based, human", "details": "500 nM, 5 μM, and 50 μM, 24 hours, FIG. 6", "protocol": "as §5, §6"}, "Keratin 14": {"tested_on": "Keratin 14", "assay": "Keratin 14 gene expression in HHORSCs (RT-PCR)", "assay_type": "cell-based, human", "details": "500 nM, 5 μM, and 50 μM, 24 hours, FIG. 6", "protocol": "as §5, §6"}, "Keratin 19": {"tested_on": "Keratin 19", "assay": "Keratin 19 gene expression in HHORSCs (RT-PCR)", "assay_type": "cell-based, human", "details": "500 nM, 5 μM, and 50 μM, 24 hours, FIG. 6", "protocol": "as §5, §6"}, "MSX2": {"tested_on": "MSX2", "assay": "MSX2 expression in HHGMCs (RT-PCR)", "assay_type": "cell-based, human", "details": "500 nM, 5 μM, and 50 μM, 24 hours, FIG. 7", "protocol": "(§7) The effect of the peptide prepared in Preparation Example 1 above on the activation of human hair germinal matrix cells (HHGMCs) was confirmed by measuring the expression of MSX2, Homeobox C13 (HOXC13), and Forkhead Box N1 (FOXN1), which are transcription factors related to cell activation.\nas §6, with “HHGMCs” for “HHORSCs”, “6-well” for “96-well”, “4×10^5” for “4×10^3”, “Then, a PCR reaction was performed using the primers shown in Table 3 below and a PCR premix (Enzynomics, South Korea).” left out"}, "HOXC13": {"tested_on": "HOXC13", "assay": "HOXC13 expression in HHGMCs (RT-PCR)", "assay_type": "cell-based, human", "details": "500 nM, 5 μM, and 50 μM, 24 hours, FIG. 7", "protocol": "as §7\nas §6, with “HHGMCs” for “HHORSCs”, “6-well” for “96-well”, “4×10^5” for “4×10^3”, “Then, a PCR reaction was performed using the primers shown in Table 3 below and a PCR premix (Enzynomics, South Korea).” left out"}, "FOXN1": {"tested_on": "FOXN1", "assay": "FOXN1 expression in HHGMCs (RT-PCR)", "assay_type": "cell-based, human", "details": "500 nM, 5 μM, and 50 μM, 24 hours, FIG. 7", "protocol": "as §7\nas §6, with “HHGMCs” for “HHORSCs”, “6-well” for “96-well”, “4×10^5” for “4×10^3”, “Then, a PCR reaction was performed using the primers shown in Table 3 below and a PCR premix (Enzynomics, South Korea).” left out"}}, "note": "Where no end group is shown, it is not given here.", "data": [{"substance": "RHVLKRR [peptide of Preparation Example 1]", "values": [{"measurement": "proliferation of HHFDPCs compared to the negative control (con)", "setting": "[1]", "value": "promoted the proliferation"}, {"measurement": "phosphorylation of Akt", "setting": "Akt", "value": "increased"}, {"measurement": "phosphorylation of extracellular-regulated kinase (ERK)", "setting": "[2]", "value": "increased"}, {"measurement": "beta-catenin activation and movement to the nucleus", "setting": "beta-catenin", "value": "activated and its movement to the nucleus was increased"}, {"measurement": "gene expression of LEF-1", "setting": "LEF-1", "value": "increased"}, {"measurement": "gene expression of Cyclin D1", "setting": "Cyclin D1", "value": "increased"}, {"measurement": "gene expression of c-Myc", "setting": "c-Myc", "value": "increased"}, {"measurement": "expression of DKK-1 induced by DHT treatment", "setting": "DKK-1", "value": "reduced in a concentration-dependent manner"}, {"measurement": "expression of Ha3-II", "setting": "Ha3-II", "value": "increasing"}, {"measurement": "expression of Keratin 5", "setting": "Keratin 5", "value": "increasing"}, {"measurement": "expression of Keratin 14", "setting": "Keratin 14", "value": "increasing"}, {"measurement": "expression of Keratin 19", "setting": "Keratin 19", "value": "increasing"}, {"measurement": "expression of MSX2", "setting": "MSX2", "value": "increased"}, {"measurement": "expression of HOXC13", "setting": "HOXC13", "value": "increased"}, {"measurement": "expression of FOXN1", "setting": "FOXN1", "value": "increased"}]}]}
